US20080305186A1, “Method and Composition for the Treatment of Cardiac Hypertrophy” (BOARD OF REGENTS, THE UNIVERSITY OF TEXAS SYSTEM, priority 2007, published 2008)

Test system: cardiac gene expression
Test: Microarray analysis of cardiac gene expression (GeneChip Mouse Genome 430 2.0)
Format: in vivo, mice
Description: Microarray Sample Preparation and Analysis. Animal hearts were rapidly removed, and the atria and right ventricles were cut and immediately plunged into TRIzol Reagent (Life Technologies). Total RNA was isolated following the manufacturer's instructions, purified by phenol-chloroform extraction and then ethanol precipitation, and 20 μg further processed for microarray analysis. Briefly, cDNA synthesis, in vitro transcription, and labeling and fragmentation to produce the oligonucleotide probes were performed as instructed by the GeneChip manufacturer (Affymetrix). The probes were first hybridized to a test array (Affymetrix) and then to the GeneChip Mouse Genome 430 2.0 Array, using the GeneChip Hybridization Oven 640. The chips were washed in a GeneChip Fluidics Station 450 (Affymetrix), and the results were visualized with a GeneChip G7 scanner (Affymetrix). RMA normalization, pairwise comparisons, Student's t test and Benjamini and Hochberg correction were subsequently performed using GeneSifter (VizX Labs, Seattle, Wash.) and Spotfire DecisionSite 8.3 (Spotfire, Inc., Somerville, Mass.).
Effects on Gene Expression Profile. […] One mouse heart was used for each array, and was performed in triplicate, generating a total of 12 arrays. GeneSifter was used to perform RMA normalization, pairwise comparisons of averaged signal intensity values, and Student's t-test with Benjamini and Hochberg correction, and Spotfire was used to perform pairwise comparisons. […] Additionally, genes that were altered between any two N or cardiac hypertrophy samples were removed, as these alterations most likely represented normal variations between mice.

[1] = heart, drug + isoproterenol vs isoproterenol only
[2] = mouse heart, vs isoproterenol only (CH), CH vs normal 1.6
[3] = mouse heart, vs isoproterenol only (CH), CH vs normal 1.7
[4] = mouse heart, vs isoproterenol only (CH), CH vs normal 1.8
[5] = mouse heart, vs isoproterenol only (CH), CH vs normal 1.9
[6] = mouse heart, vs isoproterenol only (CH), CH vs normal 2.0
[7] = mouse heart, vs isoproterenol only (CH), CH vs normal 2.1
[8] = mouse heart, vs isoproterenol only (CH), CH vs normal 2.2
[9] = mouse heart, vs isoproterenol only (CH), CH vs normal 2.3
[10] = mouse heart, vs isoproterenol only (CH), CH vs normal 2.4
[11] = mouse heart, vs isoproterenol only (CH), CH vs normal 2.5
[12] = mouse heart, vs isoproterenol only (CH), CH vs normal 2.6
[13] = mouse heart, vs isoproterenol only (CH), CH vs normal 2.7
[14] = mouse heart, vs isoproterenol only (CH), CH vs normal 2.9
[15] = mouse heart, vs isoproterenol only (CH), CH vs normal 3.0
[16] = mouse heart, vs isoproterenol only (CH), CH vs normal 3.1
[17] = mouse heart, vs isoproterenol only (CH), CH vs normal 3.2

In the case of C[C@H]1c2cccc(O)c2C(=O)C2=C(O)[C@]3(O)C(=O)C(C(N)=O)=C(O)[C@@H](N(C)C)[C@@H]3[C@@H](O)[C@@H]21 [doxycycline], the “FC EGF, latrophilin seven transmembrane domain containing 1 (Eltd1)” value (GenBank NM_133222, vs mice given only isoproterenol) was −1.7, the “FC ERBB receptor feedback inhibitor 1 (Errifi1)” value (GenBank NM_133753, vs mice given only isoproterenol) was −2.7 and the “FC F-box only protein 31 (Fboxo31)” value (GenBank NM_133765, vs mice given only isoproterenol) was −2.4. The “FC Ras homolog gene family, member U (Arhu) (Rhou)” value (GenBank NM_133955, vs mice given only isoproterenol) was −2.5, the “FC Peroxisomal biogenesis factor 12 (Pex12)” value (GenBank NM_134025, vs mice given only isoproterenol) was −2.4 and the “FC PHD finger protein 21A (Phf21a)” value (GenBank NM_138755, vs mice given only isoproterenol) was 2.1. The “FC Glutamate-ammonia ligase (Glu1)” value (GenBank U09114, vs mice given only isoproterenol) was −3.5, the “FC Gem GTPase (Gem)” value (GenBank U10551, vs mice given only isoproterenol) was −2.8 and the “FC P19-protein tyrosine phosphatase (Ptpn12)” value (GenBank X63440, vs mice given only isoproterenol) was −1.5. The “Cyclin G2 (Ccng2), Microarray FC” value [1] was −3.1 FC, the “Cyclin-dependent kinase inhibitor 1A (p21) (Cdkn1a), Microarray FC” value [1] was −6.5 FC and the “Cytokine inducible SH2-containing protein 3 (Socs3), Microarray FC” value [1] was −4.9 FC. The “DNA-damage-inducible transcript 4 (Ddit4), Microarray FC” value [1] was −5.6 FC, the “GATA binding protein 4 (Gata4), Microarray FC” value [1] was 2.7 FC and the “Gem GTPase (Gem), Microarray FC” value [1] was −2.8 FC. The “Lipocalin 2 (Lcn2), Microarray FC” value [1] was −13.3 FC, the “Matrix metalloproteinase 3 (Mmp3), Microarray FC” value [1] was −2.9 FC and the “Metallothionein 1 (MT2), Microarray FC” value [1] was −5.5 FC. For the same molecule, the “NADPH oxidase 4 (Nox4), Microarray FC” value [1] was −3.2 FC, the “Oncostatin receptor (Osmr), Microarray FC” value [1] was −2.6 FC and the “Phospholipase A2 group VII (platelet-activating factor acetylhydrolase, plasma) (Pla2g7), Microarray FC” value [1] was −2.2 FC. For the same molecule, the “S100 calcium binding protein A8 (calgranulin A) (S100a8), Microarray FC” value [1] was −19.9 FC, the “S100 calcium binding protein A9 (calgranulin B) (S100a9), Microarray FC” value [1] was −14.0 FC and the “SET and MYND domain containing 1 (Smyd1), Microarray FC” value [1] was 2.7 FC. The “Serine protease inhibitor 2-2 (Spi2-2) (Serpin3n), Microarray FC” value [1] was −9.7 FC, the “Transformation related protein 53 inducible nuclear protein 1 (Trp53inp1), Microarray FC” value [1] was −3.5 FC and the “Tubulin, alpha 4 (Tuba4), Microarray FC” value [1] was 5.8 FC. For the same molecule, the “FC Ankyrin repeat domain 47 (Ankrd47), C79906” value [2] was −2.0 fold, the “FC Procollagen, type IV, alpha 1 (Col4a1), AW536690” value [2] was −2.4 fold and the “FC cDNA, AV293532” value [3] was −1.5 fold. The “FC cDNA, BG073457” value [3] was −1.9 fold, the “FC cDNA, BI689897” value [3] was −1.8 fold and the “FC AT rich interactive domain 5B (Mrf1 like) (Arid5b), BB079486” value [4] was −2.0 fold. For the same molecule, the “FC Actin binding LIM protein family, member 3 (Ablim3), BB667786” value [4] was −2.4 fold, the “FC Chloride intracellular channel 5 (Circ5), AA210377” value [4] was −1.7 fold and the “FC Fatty acid binding protein 4, adipocyte (Fabp4), BC002148” value [4] was −2.1 fold. For the same molecule, the “FC cDNA, AK005293” value [4] was −1.8 fold, the “FC cDNA, BM215139” value [4] was −1.7 fold and the “FC Chitinase 3-like 3; chitinase 3-like 4, AY065557” value [5] was −2.4 fold. For the same molecule, the “FC cDNA, BI683916” value [5] was −2.6 fold, the “FC Casitas B-lineage lymphoma b (Cblb), AV276986” value [6] was −1.7 fold and the “FC Choline kinase (Chk), NM_013490” value [6] was −1.9 fold. The “FC Coiled-coil domain containing 85A (Ccdc85a), AW060797” value [6] was −2.0 fold, the “FC Transglutaminase 2, C polypeptide (Tgm2), AW321975” value [6] was −1.8 fold and the “FC cDNA, AV228737” value [6] was −2.1 fold. The “FC cDNA, BB447627” value [6] was −1.6 fold, the “FC Adenosine deaminase (Ada), NM_007398” value [7] was −2.4 fold and the “FC CXC chemokine (angie2) (Cxcl13), AF030636” value [7] was −2.2 fold. For the same molecule, the “FC EST, AV032095” value [7] was −1.8 fold, the “FC EST, BE630073” value [7] was −2.0 fold and the “FC cDNA, AI788755” value [7] was −2.3 fold. The “FC cDNA, BB431047” value [7] was −2.2 fold, the “FC Angiogenin, ribonuclease A family, member 1 (Ang1), AI385586” value (mouse heart, vs isoproterenol only (CH), CH vs normal 2.1, second AI385586 line) was −1.6 fold and the “FC Amine oxidase, copper containing 3 (Aoc3), NM_009675” value [8] was −2.4 fold. For the same molecule, the “FC CD14 antigen (CD14), NM_009841” value [8] was −2.0 fold, the “FC Cyclin G2 (Ccng2), U95826” value [8] was −2.5 fold and the “FC Flavin containing monooxygenase 1 (Fmo1), BC011229” value [8] was −2.0 fold. For the same molecule, the “FC RAN binding protein 9 (Ranbp9), mRNA., NM_019930” value [8] was −2.3 fold, the “FC cDNA, BB408123” value [8] was −2.0 fold and the “FC cDNA, BB769119” value [8] was −2.2 fold. For the same molecule, the “FC cDNA, BG075321” value [8] was −2.5 fold, the “FC cDNA, BG919470” value [8] was −2.0 fold and the “FC A disintegrin-like and metallopeptidase (reprolysin type) with thrombospondin (ADAMTS)-like 2 (Adamtsl2), AK020831” value [9] was −1.8 fold. The “FC CCAATenhaer binding protein (CEBP), beta (Cebpb), NM_009883” value [9] was −1.9 fold, the “FC cDNA, BB248249” value [9] was −2.1 fold and the “FC cDNA, BB258019” value [9] was −2.3 fold. The “FC cDNA, BB272245” value [9] was −1.6 fold, the “FC cDNA, BC003209” value [9] was −2.1 fold and the “FC cDNA, BF466929” value [9] was −2.8 fold. The “FC Apical protein, Xenopus laevis-like (Apx1), BQ176992” value [10] was −1.7 fold, the “FC Purine-nucleoside phosphorylase (Pnp), BC003788” value [10] was −2.0 fold and the “FC cDNA, BB398891” value [10] was −2.2 fold. The “FC cDNA, BC027342” value [10] was −2.8 fold, the “FC ATP-binding cassette, sub-family G (WHITE), member 2 (Abcg2), NM_011920” value [11] was −1.7 fold and the “FC Angiogenin, ribonuclease A family, member 1 (Ang1), NM_007447” value [11] was −2.1 fold. The “FC ESTs, AI447357” value [11] was −2.5 fold, the “FC cDNA, BB787946” value [11] was −2.3 fold and the “FC cDNA, BE956940” value [11] was −2.2 fold. The “FC cDNA, BG065702” value [11] was −2.5 fold, the “FC Casitas B-lineage lymphoma b (Cblb), BB205662” value [12] was −2.1 fold and the “FC Cysteine proteinase cathepsin L (Ctsl), J02583” value [12] was −2.1 fold. For the same molecule, the “FC Dipeptidase 1 (Dpep1), NM_007876” value [12] was −2.3 fold, the “FC Fc fragment of IgG, low affinity IIIa, receptor (Fcrl3), BC027310” value [12] was −2.7 fold and the “FC cDNA, AV234245” value [12] was −1.8 fold. The “FC cDNA, AW552579” value [12] was −2.4 fold, the “FC Bcl2-like (Bcl211), BM228788” value [13] was −1.9 fold and the “FC Ceruloplasmin (Cp), NM_007752” value [13] was −1.7 fold. For the same molecule, the “FC G7e protein, NM_033075” value [13] was −2.2 fold, the “FC Mitogen activated protein kinase kinase kinase 8 (Map3k8), NM_007746” value [13] was −3.0 fold and the “FC cDNA, BB200607” value [13] was −2.7 fold. The “FC cDNA, BC019553” value [13] was 1.7 fold, the “FC cDNA, BG071024” value [13] was −2.8 fold and the “FC cDNA, BQ174442” value [13] was −2.2 fold. For the same molecule, the “FC cDNA, AV365503” value (mouse heart, vs isoproterenol only (CH), CH vs normal 2.8, first AV365503 line) was −3.0 fold, the “FC Carbonic anhydrase 4 (Car4), NM_007607” value (mouse heart, vs isoproterenol only (CH), CH vs normal 2.8, second NM_007607 line) was −4.3 fold and the “FC ChaC, cation transport regulator-like 1 (Chac1), BC025169” value [14] was −2.6 fold. For the same molecule, the “FC Decorin (Dcn), AV321547” value [14] was −2.0 fold, the “FC Glycoprotein (transmembrane) nmb (Gpnmb), NM_053110” value [14] was −2.0 fold and the “FC cDNA, BC004065” value [14] was −3.1 fold. The “FC cDNA, BC020080” value [14] was −3.4 fold, the “FC Amyotrophic lateral sclerosis 2 (juvenile) chromosome region, candidate 13 (Als2cr13), AV326938” value [15] was −1.6 fold and the “FC Chromodomain protein, Y chromosome-like (Cdyl), NM_009881” value [15] was −2.0 fold. The “FC C-type lectin domain family 1, member a (Clec1a), BB035924” value [16] was −2.2 fold, the “FC Casitas B-lineage lymphoma b (Cblb), AW545867” value [16] was −2.1 fold and the “FC Prostaglandin D synthetase (Ptdgs), AB006361” value [16] was −2.3 fold. The “FC cDNA, AA939619” value [16] was −3.1 fold, the “FC cDNA, AI790538” value [16] was −2.0 fold and the “FC Carbonic anhydrase 4 (Car4), NM_007607” value (mouse heart, vs isoproterenol only (CH), CH vs normal 3.1, first NM_007607 line) was −5.2 fold. For the same molecule, the “FC cDNA, AV365503” value (mouse heart, vs isoproterenol only (CH), CH vs normal 3.1, second AV365503 line) was −2.8 fold, the “FC CUB and zona pellucida-like domains 1 (Cuzd1), NM_008411” value [17] was −1.7 fold and the “FC Chemokine (C—C motif) ligand 6 (Cc16) (MRP-1), BC002073” value [17] was −1.9 fold. For the same molecule, the “FC G7e protein, BC027314” value [17] was −3.1 fold, the “FC Serine (or cysteine) peptidase inhibitor, clade A, member 3G (Serpina3g), BC002065” value [17] was −3.6 fold and the “FC cDNA, AV084904” value [17] was −1.7 fold. For the same molecule, the “FC cDNA, AV369812” value [17] was −2.5 fold, the “FC cDNA, BB829165” value [17] was −3.1 fold and the “FC cDNA, BG297038” value [17] was −3.3 fold. The “FC cDNA, NM_133898” value [17] was −3.3 fold, the “FC Angiogenin, ribonuclease A family, member 1 (Ang1), AI385586” value (mouse heart, vs isoproterenol only (CH), CH vs normal 3.2, first AI385586 line) was −2.1 fold and the “FC Pyruvate dehydrogenase kinase 4 (Pdk4), NM_013743” value (mouse heart, vs isoproterenol only (CH), CH vs normal 3.3) was −3.1 fold.
